Assay results: ChEMBL document CHEMBL1128140, “Novel indolocarbazole protein kinase c inhibitors with improved biochemical and physicochemical properties” (Bioorg Med Chem Lett, 1995)

Key:
[1] = Tested for inhibition of catalytic subunit of cAMP-dependent protein kinase from bovine heart
Protein kinase C (PKC) = test: Tested for inhibition of protein kinase C from rat brain
[2] = biological target: T1, cGMP-dependent protein kinase 1 (Bos taurus, UniProt P00516); test: Tested for inhibition of cGMP-dependent protein kinase from bovine lung
T1 sequence (P00516 whole entry): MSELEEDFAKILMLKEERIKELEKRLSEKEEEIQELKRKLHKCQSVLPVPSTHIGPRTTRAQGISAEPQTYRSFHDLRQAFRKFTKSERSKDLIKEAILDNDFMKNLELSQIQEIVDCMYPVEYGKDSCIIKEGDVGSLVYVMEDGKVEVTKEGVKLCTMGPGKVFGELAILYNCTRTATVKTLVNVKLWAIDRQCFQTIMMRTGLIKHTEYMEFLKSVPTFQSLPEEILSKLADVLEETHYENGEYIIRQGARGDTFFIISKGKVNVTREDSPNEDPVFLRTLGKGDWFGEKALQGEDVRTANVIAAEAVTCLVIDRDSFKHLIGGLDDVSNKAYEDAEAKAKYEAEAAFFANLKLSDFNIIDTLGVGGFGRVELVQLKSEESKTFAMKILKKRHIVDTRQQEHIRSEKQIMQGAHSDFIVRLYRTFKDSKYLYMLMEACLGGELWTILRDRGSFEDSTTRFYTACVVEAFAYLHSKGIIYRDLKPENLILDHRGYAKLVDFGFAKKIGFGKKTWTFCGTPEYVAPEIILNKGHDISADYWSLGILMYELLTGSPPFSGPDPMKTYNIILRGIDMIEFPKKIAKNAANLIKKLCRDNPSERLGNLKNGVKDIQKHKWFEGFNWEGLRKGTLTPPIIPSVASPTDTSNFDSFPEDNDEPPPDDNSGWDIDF

[3] = biological target: Tyrosine-protein kinase Blk (Mus musculus, UniProt P16277); test: Tested for inhibition of general tyrosine-specific protein kinase activity from murine B cell lysate; type: cell-based
Tyrosine-protein kinase Blk, sequence (P16277 whole entry): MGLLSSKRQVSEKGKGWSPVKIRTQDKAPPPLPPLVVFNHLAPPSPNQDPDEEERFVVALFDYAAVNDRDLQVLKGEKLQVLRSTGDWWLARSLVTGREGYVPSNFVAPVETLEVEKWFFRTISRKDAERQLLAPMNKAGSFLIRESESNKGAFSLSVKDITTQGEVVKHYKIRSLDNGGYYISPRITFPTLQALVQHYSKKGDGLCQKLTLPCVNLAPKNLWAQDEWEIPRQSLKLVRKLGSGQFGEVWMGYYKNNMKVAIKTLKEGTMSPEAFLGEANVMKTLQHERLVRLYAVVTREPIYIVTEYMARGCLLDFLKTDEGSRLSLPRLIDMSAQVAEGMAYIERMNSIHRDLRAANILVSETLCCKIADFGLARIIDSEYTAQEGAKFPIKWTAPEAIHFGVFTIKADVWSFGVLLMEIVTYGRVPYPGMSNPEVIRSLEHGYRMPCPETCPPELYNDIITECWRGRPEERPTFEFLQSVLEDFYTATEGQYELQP

## CN(C)CCCn1c2ccccc2c2c3c(c4c5ccccc5[nH]c4c21)C(=O)NC3
[1]
  IC50: > 10 µM
Protein kinase C (PKC)
  IC50: 0.23 µM
[2]
  IC50: 420 nM

## Cn1c2ccccc2c2c3c(c4c5ccccc5n(CCCN)c4c21)CNC3=O
[1]
  IC50: 0.75 µM
Protein kinase C (PKC)
  IC50: 0.032 µM
[2]
  IC50: 220 nM

## CN(C)CC(O)Cn1c2ccccc2c2c3c(c4c5ccccc5n(C)c4c21)C(=O)NC3=O (centres undefined)
[1]
  IC50: 6.3 µM
Protein kinase C (PKC)
  IC50: 0.021 µM
[2]
  IC50: 2100 nM

## COc1ccc2c(c1)c1c3c(c4c5ccccc5n(C)c4c1n2CCCC#N)C(=O)NC3=O
[1]
  IC50: 0.2 µM
Protein kinase C (PKC)
  IC50: 0.005 µM
[2]
  IC50: 1000 nM

## CN(C)CCCn1c2ccc(O)cc2c2c3c(c4c5cc(O)ccc5[nH]c4c21)C(=O)NC3
Protein kinase C (PKC)
  IC50: 0.016 µM

## COc1ccc2c(c1)c1c3c(c4c5ccccc5n(C)c4c1n2CC(O)CN(C)C)C(=O)NC3=O (centres undefined)
[1]
  IC50: 0.51 µM
Protein kinase C (PKC)
  IC50: 0.004 µM
[2]
  IC50: 4800 nM

## CN(C)CCCn1c2ccccc2c2c3c(c4c5ccccc5n(C)c4c21)C(=O)NC3
[1]
  IC50: 9.9 µM
Protein kinase C (PKC)
  IC50: 0.045 µM
[2]
  IC50: 870 nM

## COc1ccc2[nH]c3c(c4c(c5c6cc(OC)ccc6n(CCCN(C)C)c35)CNC4=O)c2c1
Protein kinase C (PKC)
  IC50: 0.55 µM

## COc1ccc2c(c1)c1c3c(c4c5ccccc5n(C)c4c1n2CCC#N)C(=O)NC3=O
[1]
  IC50: 0.4 µM
Protein kinase C (PKC)
  IC50: 0.002 µM
[2]
  IC50: > 3000 nM
[3]
  IC50: > 10 µM

## COc1ccc2c(c1)c1c3c(c4c5ccccc5n(C)c4c1n2CC(O)CN(C)C)C(=O)NC3 (centres undefined)
[1]
  IC50: 15 µM
Protein kinase C (PKC)
  IC50: 0.086 µM
[2]
  IC50: 23000 nM
[3]
  IC50: > 10 µM

## CN(C)CC(O)Cn1c2ccccc2c2c3c(c4c5ccccc5n(C)c4c21)C(=O)NC3 (centres undefined)
[1]
  IC50: 24 µM
Protein kinase C (PKC)
  IC50: 0.03 µM
[2]
  IC50: 9400 nM
[3]
  IC50: > 100 µM

## COc1ccc2c(c1)c1c3c(c4c5cc(OC)ccc5n(CCC#N)c4c1n2C)CNC3=O
[1]
  IC50: 45 µM
Protein kinase C (PKC)
  IC50: 0.056 µM
[2]
  IC50: 2000 nM
[3]
  IC50: > 10 µM

## COc1ccc2c(c1)c1c3c(c4c5ccccc5n(CCC#N)c4c1n2C)C(=O)NC3=O
Protein kinase C (PKC)
  IC50: 0.016 µM

## Cn1c2ccccc2c2c3c(c4c5ccccc5n(CCC#N)c4c21)C(=O)NC3=O
[1]
  IC50: > 30 µM
Protein kinase C (PKC)
  IC50: 0.038 µM
[2]
  IC50: 7200 nM

## Cn1c2ccc(O)cc2c2c3c(c4c5cc(O)ccc5n(CCC#N)c4c21)CNC3=O
Protein kinase C (PKC)
  IC50: 0.009 µM

## COc1ccc2c(c1)c1c3c(c4c5cc(OC)ccc5n(CCC#N)c4c1n2C)C(=O)NC3=O
Protein kinase C (PKC)
  IC50: 0.006 µM

## Cn1c2ccccc2c2c3c(c4c5ccccc5n(CCC#N)c4c21)CNC3=O [GO-6976]
[1]
  IC50: > 100 µM
Protein kinase C (PKC); read-out: IC50
  IC50: 0.02 µM
